Assay results as given in patent publication US10398315B2, “Method of imaging living tissue” (Agency for Science, Technology and Research, priority 2013, dated 2019).
Entries after “also recorded” stand apart in the source; their conditions may differ.

What was measured:
[1] = literature value; cited from earlier work
[2] = literature value; cited from earlier work; remark: listed apart in the source
[3] = Concentration of drug in the blood calculated from pre-clinical in vivo dose from literature; details: assuming volume of blood in mice 2 ml
[4] = MSOT phantom measurement of photoacoustic signal; format: physicochemical; details: 680-900 nm; for Relative PA Quantum yield (ϕP): gradient of unmixed PA signal vs concentration in phantom, arbitrary ratios; for PA signal / photoacoustic activity in phantoms: phantom, compared among the 5 photosensitizers
Protocol: In order to verify the PA activity of the photosensitizers under controlled conditions, phantom measurements for all the contrast agents were performed, in the 680-900 nm wavelength range, each at 5 different concentrations.
All phantom and in vivo mouse imaging experiments were performed using a real-time multispectral optacoustic tomographic (MSOT) imaging system; inVision 128 (iThera Medical GmbH, Neuherberg, Germany).
The phantom was made of polyurethane, cylindrical in shape with a diameter of 2 cm, which was specially designed to mimic the shape, size and optical properties of the mouse (iThera Medical GmbH, Neuherberg, Germany). In addition, it had 2 inner cylindrical channels, each with diameter of 3 mm, one for holding the control medium and the other for holding the dissolved contrast agent in the same medium, to measure PA signal compared to the control medium, as shown in FIG. 2A.
Optical excitation was provided by an optical parametric oscillator (OPO) with a tunable near infra-red (NIR) wavelength range from 680 nm to 980 nm, which is in turn pumped by a Q-switched Nd:YAG laser with a pulse duration of 10 ns and repetition rate of 10 Hz. Light was delivered by a fiber bundle divided into 10 output arms to illuminate the sample from multiple angles around the imaging plane.
Photoacoustic (PA) signals were acquired using a 128-element concave transducer array spanning a circular arc of 270°. […] One transverse image slice was acquired from each laser pulse, resulting in a frame-rate of 10 Hz.
During image acquisition, the sample is translated through the transducer array along its axis across the volume ROI, in order to capture the corresponding transverse image slices. Data from multiple transverse slices across the channel portion which contains the probe and control were recorded. Excitation wavelength scan from 680 to 900 nm with an interval of 10 nm for each transverse slice was applied, and the averaged PA signals from 10 frames for each wavelength and position were recorded.
In addition, PA signal for each contrast agent was spectrally unmixed via linear regression. This allowed isolation of the individual contribution of the contrast agent of interest that may be plotted as a function of concentration, which in turn was used to produce a straight line of best fit based on least-squares regression, for each contrast agent.
This gradient was thereby defined by the inventors as a form of relative PA quantum yield (ϕP), a kind of measure of the efficiency of the conversion of light absorption into photoacoustic signal. This is analogous to fluorescence quantum yield (ϕ), which measures efficiency of the conversion of light absorption into fluorescence emission.
The numbers shown are not absolute values, but arbitrary ratios, which reflect the relative PA strength of one compound against that of another.

[5] = In vivo longitudinal MSOT monitoring of probe biodistribution in mouse xenograft model; details: 0.21 mg/kg tail vein; for time of peak accumulation post injection: tumor site and organs
Protocol: For in vivo imaging, ultrasound gel was applied on the mouse skin surface, and measurements were recorded in temperature-controlled water for good acoustic coupling. An animal holder with a thin polyethylene membrane was used to prevent direct contact between the mouse and the water.
Xenograft mice models were established by injecting subcutaneously into the right flank of mouse, 0.2 mL of cell suspension containing about 5×10^6 to 6×10^6 MCF-7, a human metastatic breast cancer cell line or OSCC, a human oral squamous carcinoma cell line and matrigel (BD biosciences) in 1:1 volume ratio. When the tumor volume reached a palpable size, the mouse was used for in vivo PA imaging.
ZnPc at a dosage of 0.21 mg/kg was injected via a catheter into the tail vein of a subcutaneous tumor bearing mice anaesthetized under isoflurane and the probe biodistribution or uptake was monitored over time in various organs of liver, spleen, kidneys, intestines and tumor using photoacoustic imaging. Before image acquisition, a volume ROI consisting of transverse slices with a step size of 0.3 mm spanning from the liver to the lower abdomen was selected by manual inspection of live MSOT images, and the 6 laser excitation wavelengths of 680, 700, 750, 800, 850 and 900 nm were selected for correspondence with the major turning points in the absorption spectra of ZnPc, oxy-haemoglobin and deoxy-haemoglobin. Multispectral imaging was then performed with 10 signal averages per wavelength per transverse slice, before injection, during injection and 1, 3, 5, and 24 hr post-injection.
Images were reconstructed using a model-based approach as discussed in Rosenthal, A. et al. (Rosenthal, A. et al., Fast semi-analytical model-based acoustic inversion for quantitative optoacoustic tomography. IEEE Trans. Med. Imag. 29, 1275-1285 (2010)) for offline analysis. After image reconstruction, spectral unmixing was performed to resolve individual components from different chromophores in the system. For each pixel in the image, the method fits the total measured optoacoustic spectrum to the known absorption spectra of the individual chromophores, based on least-squares linear regression.
A volume ROI consisting of transverse slices spanning from the liver to the lower abdomen was scanned, and maximum intensity projections (MIPs) based on these slices were constructed for image analysis.
For the later time points, this background subtraction was not possible, as the animal was removed and placed in the MSOT system repeatedly, with repositioning, in order to avoid overdosage of isoflurane for the entire 24-hour duration.

[6] = UV absorbance measurement 680-900 nm; format: physicochemical; details: 680 nm to 900 nm, normalized absorbance, compared among the 5 photosensitizers
Protocol: In order to obtain information about optical absorption properties of the contrast agents, their wavelength-dependent absorption spectra at known concentrations were measured using a spectrophotometer.
In the experiments carried out, wavelength-dependent absorption spectrum of the contrast agents was measured from 680 nm to 900 nm using a spectrophotometer (DU 730, Beckman Coulter), which in turn was used as an input spectrum for multispectral post-processing of photoacoustic signals.
The spectra were normalized to obtain the concentration-independent normalized absorbance (directly proportional to extinction coefficient) as a function of wavelength for each contrast agent (FIG. 1), based on Beer-Lambert law: A(λ)=ln(Io/I)=ε(λ)cl
where A(λ) is the measured wavelength-dependent absorbance, I0 is the incident light intensity, I is the transmitted light intensity, ε(2) is the wavelength-dependent extinction coefficient of the contrast agent, c is the concentration of the contrast agent and l is the path length of the quartz cuvette (1 cm).

Concentration of drug in the blood [3] [µM]	Relative PA Quantum yield (ϕP) [4]	tmax, time of peak concentrations ([5]; MIPs t=10 to 60 mins) [h]	time to clearance ([5]; MSOT signal) [h]	time of peak tumor-to-muscle ratio of MSOT signal ([5]; n=4) [h]	time to localization at the tumor post injection ([5]; tumor bearing mice) [min]	time of peak accumulation post injection [5] [h]	time of peak accumulation post injection ([5]; listed as zinc phthalocyanine)	Molecule	Fluorescence Quantum Yield (ϕF) [1]	Singlet Oxygen Quantum Yield (ϕΔ) [2]	Relative PA Quantum yield (ϕP) ([4]; listed as zinc pthalocyanine)	PA signal / photoacoustic activity in phantoms [4]	PA signal / photoacoustic activity in phantoms ([4]; listed as zinc phthalocyanine)	PA signal / photoacoustic activity in phantoms ([4]; listed as zinc pthalocyanine)	organ biodistribution of MSOT signal ([5]; liver, spleen, kidneys, intestines, tumor)	overall absorbance in the NIR region [6]
181.40	0.18	–	–	–	–	–	–	O=C1C(=C2C(O)=CC(=[N+](Cc3ccccc3)Cc3ccccc3)C=C2O)C([O-])=C1c1c(O)cc(N(Cc2ccccc2)Cc2ccccc2)cc1O [Sq, 2,4-bis[4-(N,N-dibenzylamino)-2,6-dihydroxyphenyl]squaraine]	0.037 [27]	0.61-0.74 [28]	–	–	–	–	–	–
3.63	–	1	≤ 24	1	≤ 10	1	around 1 hour	[Zn+2].c1ccc2c(c1)-c1nc-2nc2[n-]c(nc3nc([n-]c4nc(n1)-c1ccccc1-4)-c1ccccc1-3)c1ccccc21 [ZnPc, zinc phthalocyanine]	0.06 [23]	0.62 [23]	highest relative photoacoustic quantum yield	strongest PA signal in phantoms	highest photoacoustic activity	strongest photoacoustic signal	strong in vivo MSOT signal of ZnPc was detected in the reticuloendothelial system (liver, spleen), intestines and tumor site within the first hour after injection; also recorded: high concentrations were found in the liver and intestines up to the 3-hour time point, whereas renal signal was much weaker in comparison	highest overall absorbance
41.90	0.036	–	–	–	–	–	–	chlorin e6 [Ce6]	0.19 [23]	0.65 [23]	–	–	–	–	–	–

The next lines start with the molecule.

Molecule	Concentration of drug in the blood [3] [µM]	Relative PA Quantum yield (ϕP) [4]	tmax, time of peak concentrations ([5]; MIPs t=10 to 60 mins) [h]	time to clearance ([5]; MSOT signal) [h]	time of peak tumor-to-muscle ratio of MSOT signal ([5]; n=4) [h]	time to localization at the tumor post injection ([5]; tumor bearing mice) [min]	time of peak accumulation post injection [5] [h]	time of peak accumulation post injection ([5]; listed as zinc phthalocyanine)	Fluorescence Quantum Yield (ϕF) [1]	Singlet Oxygen Quantum Yield (ϕΔ) [2]	Relative PA Quantum yield (ϕP) ([4]; listed as zinc pthalocyanine)	PA signal / photoacoustic activity in phantoms [4]	PA signal / photoacoustic activity in phantoms ([4]; listed as zinc phthalocyanine)	PA signal / photoacoustic activity in phantoms ([4]; listed as zinc pthalocyanine)	organ biodistribution of MSOT signal ([5]; liver, spleen, kidneys, intestines, tumor)	overall absorbance in the NIR region [6]
CN(C)c1ccc2nc3ccc(=[N+](C)C)cc-3sc2c1 [MB, methylene blue]	1337.00	0.029	–	–	–	–	–	–	0.02 [23]	0.55 [23]	–	–	–	–	–	–
C=CC1=C(C)c2cc3[nH]c(cc4nc(cc5[nH]c(cc1n2)c(C)c5CCC(=O)O)C(CCC(=O)O)=C4C)c(C)c3C=C [PpIX, protoporphyrin IX]	88.88	–	–	–	–	–	–	–	–	–	–	–	–	–	–	–
